Measured values published in patent US6613323B2 (priority 2000, dated 2003).

Test system: Magnaporthe grisea
Assay type: cell-based

OCCCCCCCCCCCCCCCCO [1,16-hexadecanediol]
effectiveness in inducing appressorium formation compared with cAMP (in the presence of recombinant PepEST): much more effective than cAMP | reversal of the inhibition of appressorium formation by the recombinant protein (spores treated in the presence of recombinant PepEST, cAMP 10 mM, 1,16-hexadecanediol 0.01 mM): reversible
